# Where two headings read alike, the source gives them in different places.
# Columns and labels:
# Assay in all cases: L-DOPA oxidation assay in MM418C1 cell lysate, single dose […] ([…] activity remaining)
# Conditions in all cases: read-out: % activity remaining at 1 mg/mL
# human tyrosinase (hsTYR) [1] = biological target: T1, human tyrosinase (hsTYR) (Homo sapiens, UniProt P14679); format: cell-free (cell lysate)
# T1 construct: gene TYR
# T1 sequence (P14679 19-529): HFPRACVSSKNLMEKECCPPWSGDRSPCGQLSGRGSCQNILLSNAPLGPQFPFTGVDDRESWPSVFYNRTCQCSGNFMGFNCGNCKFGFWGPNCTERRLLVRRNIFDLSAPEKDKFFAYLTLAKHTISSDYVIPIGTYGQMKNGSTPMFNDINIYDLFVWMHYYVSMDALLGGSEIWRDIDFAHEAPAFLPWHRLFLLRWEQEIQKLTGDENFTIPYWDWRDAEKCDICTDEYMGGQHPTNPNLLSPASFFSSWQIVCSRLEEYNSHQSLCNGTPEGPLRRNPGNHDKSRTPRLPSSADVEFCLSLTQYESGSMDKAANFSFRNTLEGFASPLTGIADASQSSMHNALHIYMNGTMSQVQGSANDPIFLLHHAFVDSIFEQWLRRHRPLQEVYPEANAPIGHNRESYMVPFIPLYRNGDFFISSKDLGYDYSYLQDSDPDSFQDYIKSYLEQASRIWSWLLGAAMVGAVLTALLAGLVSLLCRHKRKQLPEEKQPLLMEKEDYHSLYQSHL
# human tyrosinase (hsTYR) [2] = biological target: T1, human tyrosinase (hsTYR); format: cell-free
# human tyrosinase (hsTYR) [3] = biological target: T1, human tyrosinase (hsTYR); format: biochemical
smiles,measurement,setting,value
"O=C(/C=C/c1ccc(O)c(O)c1)O[C@@H]1C[C@](O)(C(=O)O)C[C@@H](O)[C@H]1O [compound 7, 5-caffeoylquinic acid]",remaining activity at 1000 µg/mL,human tyrosinase (hsTYR) [1],68.1%
"CC1(C)C(CO[C@@H]2O[C@H](CO)[C@@H](O)[C@H](O)[C@H]2O)=CC(=O)C2=C1SCC(=O)N2 [compound 9, xanthiside]",remaining activity at 1000 µg/mL,human tyrosinase (hsTYR) [2],76.9%
"O=C(/C=C/c1ccc(O)c(O)c1)O[C@@H]1CC(OC(=O)/C=C/c2ccc(O)c(O)c2)(C(=O)O)C[C@@H](O)C1O (stereo partly drawn) [compound 11, 1,3-dicaffeoylquinic acid]",remaining activity at 1000 µg/mL,human tyrosinase (hsTYR) [3],78.1%
